Reference: paper PMC10122656, “Siglec-6 mediates the uptake of extracellular vesicles through a noncanonical glycolipid binding pocket” (Nature Communications, 2023)
“And” between values parts separate entries of the source, which are not always exact repeats. Equal values may be shown once.

Assays:
Test in all cases: Cell assay (liposome/EV binding, flow cytometry)
Assay type in all cases: cell-based
Siglec-4 R118A CHO cells = target: T1, Siglec-4 R118A CHO cells (Homo sapiens, UniProt P20916, R118A); details: Sig-4 R118A†; † after treatment of cells with neuraminidase; 3 mol% ganglioside liposomes; replicates
T1 construct: expressed in transfected cells
T1 sequence (P20916 20-626 R118A): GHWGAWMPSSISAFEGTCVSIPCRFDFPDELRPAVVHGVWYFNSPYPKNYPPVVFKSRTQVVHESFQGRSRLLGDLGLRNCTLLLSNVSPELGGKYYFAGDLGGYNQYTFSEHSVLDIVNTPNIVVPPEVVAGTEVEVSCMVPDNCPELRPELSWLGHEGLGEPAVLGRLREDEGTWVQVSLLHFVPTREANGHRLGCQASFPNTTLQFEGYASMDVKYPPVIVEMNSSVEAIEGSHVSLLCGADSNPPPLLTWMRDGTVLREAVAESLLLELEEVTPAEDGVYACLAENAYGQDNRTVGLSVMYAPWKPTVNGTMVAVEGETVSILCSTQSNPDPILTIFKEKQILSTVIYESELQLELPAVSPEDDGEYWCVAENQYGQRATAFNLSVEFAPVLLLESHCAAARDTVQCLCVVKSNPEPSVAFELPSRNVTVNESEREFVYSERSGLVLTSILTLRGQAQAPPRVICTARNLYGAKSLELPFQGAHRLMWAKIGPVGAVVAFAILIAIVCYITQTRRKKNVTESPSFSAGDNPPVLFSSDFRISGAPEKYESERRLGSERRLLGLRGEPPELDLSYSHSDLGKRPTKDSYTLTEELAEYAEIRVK
Method: (§1) Stock lipids (DSPC, Cholesterol, PEG45–DSPE) solutions were prepared by solvating the lipids in chloroform. An appropriate volume of each lipid solution was transferred to a glass test tube to reach the desired mol% of the component. The chloroform was then removed under N2 gas to yield a lipid thin film. Once dry, 100 µL of DMSO was added to the lipid-containing test tube and then the functional lipids (ganglioside, AF647–PEG45–DSPE, Siglec ligand–PEG45–DSPE, pHrodo–PEG45–DSPE, NGL) was added from their respect DMSO stock solution. The lipid mixture was then stored at −80 °C until completely frozen at which point excess DMSO was removed via lyophilization. Dry lipids were then stored at −80 °C until they were extruded. Lipid suppliers can be found in Supplementary Table 4.
(§2) Dry lipids were then hydrated in 1 mL of PBS. The lipids were then sonicated in a bath sonicator in a cycle of 1 min on, 5 min off for a total of five cycles. Liposomes were then extruded using an Avanti mini extruder first using an 800 nm filter and then a 100 nm filter yielding liposomes that were 130 ± 35 nm (Supplementary Table 5) measured using a Malvern Panalytical Zetasizer Nano S. Liposomes were stored at 4 °C.
(§3) 200,000 cells/well were plated into a 96-well U-bottom microplate and centrifuged at 300 × g for 5 min. The cells were then resuspended in 50 µL of 50 µM liposome/50 µg/mL (protein concentration) of EV solution in DMEM F12 5% FBS and incubated at 37 °C for 30 min. Excess liposomes were then removed via centrifuged at 300 × g for 5 min followed by washing the cells with FACS solution. The cells were then resuspended in (1:250 V/V) anti-Siglec-flow buffer (1% V/V FBS, 500 µM, EDTA Hank’s Balanced Salt Solution pH 7.4), solution and left to rest on ice for 30 min. The cells were then centrifuged again at 300 × g for 5 min and the cells were resuspended in FACS buffer solution and were then ready for analysis by flow cytometry. Information regarding antibody clone, catalog number supplier, label isotype, and dilution can be found in Supplementary Table 6. The Siglec-positive cells were gated on for liposome-binding analysis (Supplementary Fig. 1b).
(§4) Flow cytometry measurements were collected on a 5-laser Fortessa X-20 (BD Bioscience). All the resulting data were analyzed using FlowJo (10.5.3) software (BD Biosciences).
(§5) Cells were harvested and resuspended in complete media with either Neuraminidase A or S. The cells were then placed in a 37 °C shaking incubator for 1 h. The cells were then washed with complete media and then the liposome binding assay was performed as described above.

Siglec-5 R119A CHO cells = target: T2, Siglec-5 R119A CHO cells (Homo sapiens, UniProt O15389, R119A); details: Sig-5 R119A†; † after treatment of cells with neuraminidase; 3 mol% ganglioside liposomes; replicates
T2 construct: expressed in transfected cells
T2 sequence (O15389 17-551 R119A): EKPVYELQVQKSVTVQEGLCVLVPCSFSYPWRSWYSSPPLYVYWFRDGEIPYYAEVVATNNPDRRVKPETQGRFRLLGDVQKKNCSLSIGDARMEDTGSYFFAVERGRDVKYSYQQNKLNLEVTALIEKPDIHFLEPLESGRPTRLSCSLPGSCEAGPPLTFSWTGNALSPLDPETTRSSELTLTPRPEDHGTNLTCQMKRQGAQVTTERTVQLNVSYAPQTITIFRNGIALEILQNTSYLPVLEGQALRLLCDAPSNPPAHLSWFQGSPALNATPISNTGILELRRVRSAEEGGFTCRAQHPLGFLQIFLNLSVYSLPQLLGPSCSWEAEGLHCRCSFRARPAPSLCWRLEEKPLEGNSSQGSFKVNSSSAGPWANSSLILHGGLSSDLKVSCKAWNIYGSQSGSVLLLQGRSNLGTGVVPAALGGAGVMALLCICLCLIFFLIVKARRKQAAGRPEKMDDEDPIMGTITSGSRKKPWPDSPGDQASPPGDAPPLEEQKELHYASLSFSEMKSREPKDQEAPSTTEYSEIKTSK
Method: as §1, §2, §3, §4, §5

Siglec-7 R124A CHO cells = target: T3, Siglec-7 R124A CHO cells (Homo sapiens, UniProt Q9Y286, R124A); details: Sig-7 R124A†; † after treatment of cells with neuraminidase; 3 mol% ganglioside liposomes; replicates
T3 construct: expressed in transfected cells
Method: as §1, §2, §3, §4, §5

Siglec-7 WT CHO cells = target: T4, Siglec-7 WT CHO cells (Homo sapiens, UniProt Q9Y286); details: for log10(MFI AF647) of GLL relative to log10(MFI AF647) of the same GLL against UT CHO cells (Fig. 2a): Sig-7 WT†, † after treatment of cells with neuraminidase, 3 mol% ganglioside liposomes, replicates
T4 construct: expressed in transfected cells
Method: as §1, §2, §3, §4, §5

Siglec-9 WT CHO cells = target: T5, Siglec-9 WT CHO cells (Homo sapiens, UniProt Q9Y336); details: for log10(MFI AF647) of GLL relative to log10(MFI AF647) of the same GLL against UT CHO cells (Fig. 2a): Sig-9 WT†, † after treatment of cells with neuraminidase, 3 mol% ganglioside liposomes, replicates
T5 construct: expressed in transfected cells
Method: as §1, §2, §3, §4, §5

T4 sequence (Q9Y286 19-467): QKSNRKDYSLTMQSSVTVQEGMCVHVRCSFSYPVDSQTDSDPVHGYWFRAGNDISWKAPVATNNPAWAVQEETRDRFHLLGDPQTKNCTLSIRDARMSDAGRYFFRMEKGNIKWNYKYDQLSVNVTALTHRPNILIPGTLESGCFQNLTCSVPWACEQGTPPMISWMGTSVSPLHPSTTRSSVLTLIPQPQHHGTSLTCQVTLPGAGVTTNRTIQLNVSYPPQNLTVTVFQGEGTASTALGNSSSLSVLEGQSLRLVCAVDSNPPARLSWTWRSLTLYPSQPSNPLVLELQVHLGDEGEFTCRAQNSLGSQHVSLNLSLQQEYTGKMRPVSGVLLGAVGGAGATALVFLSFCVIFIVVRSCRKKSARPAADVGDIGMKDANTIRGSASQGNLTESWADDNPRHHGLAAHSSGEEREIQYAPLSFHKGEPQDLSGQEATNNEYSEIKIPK
T3 sequence (Q9Y286 19-467 R124A): as the sequence (Q9Y286 19-467) above, with R106A counted along it
T5 sequence (Q9Y336 18-463): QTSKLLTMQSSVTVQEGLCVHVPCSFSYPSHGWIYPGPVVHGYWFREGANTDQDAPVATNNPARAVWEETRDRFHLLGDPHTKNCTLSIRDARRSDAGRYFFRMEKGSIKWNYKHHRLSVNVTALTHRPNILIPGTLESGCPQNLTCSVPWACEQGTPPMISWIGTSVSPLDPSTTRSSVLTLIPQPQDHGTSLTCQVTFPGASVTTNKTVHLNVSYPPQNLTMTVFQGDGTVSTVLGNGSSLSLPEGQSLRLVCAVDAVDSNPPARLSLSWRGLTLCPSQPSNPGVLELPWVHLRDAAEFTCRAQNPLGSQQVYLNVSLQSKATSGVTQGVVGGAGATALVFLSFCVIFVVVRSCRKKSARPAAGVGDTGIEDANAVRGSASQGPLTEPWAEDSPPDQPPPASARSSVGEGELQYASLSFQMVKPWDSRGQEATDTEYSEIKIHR

Substance	log10(MFI AF647) of GLL relative to log10(MFI AF647) of the same GLL against UT CHO cells (Fig. 2a) (Siglec-4 R118A CHO cells)	log10(MFI AF647) of GLL relative to log10(MFI AF647) of the same GLL against UT CHO cells (Fig. 2a) (Siglec-5 R119A CHO cells)	log10(MFI AF647) of GLL relative to log10(MFI AF647) of the same GLL against UT CHO cells (Fig. 2a) (Siglec-7 R124A CHO cells)	log10(MFI AF647) of GLL relative to log10(MFI AF647) of the same GLL against UT CHO cells (Fig. 2a) (Siglec-7 WT CHO cells)	log10(MFI AF647) of GLL relative to log10(MFI AF647) of the same GLL against UT CHO cells (Fig. 2a) (Siglec-9 WT CHO cells)	GLL binding to Siglec-7 with increasing ganglioside content (in words) (Siglec-7 WT CHO cells; ganglioside titrated in GLLs, cells treated with neuraminidase S)	GLL binding to Siglec-9 (in words) (Siglec-9 WT CHO cells; cell assay, optimized liposomal formulation)
GD1a	0 (2×) and 0.02 and 0.01	-0.25 and -0.02 and -0.03 and 0.01	-0.2 and -0.15 and -0.24	0.05 and 0.02 and 0.03	0.29 (2×) and 0.32		
GD1b	0.08 and 0.05 and 0.02 and 0.03	0.17 and -0.03 and -0.02 and 0.04	-0.23 (2×) and -0.27	0 and -0.03 and -0.01	0.27 (2×) and 0.29		
GD3	-0.13 and -0.1 and -0.07 and -0.14	-0.21 (2×) and -0.15 (2×)	-0.08 and -0.02 and -0.1	1.01 and 0.98 and 1.03	0.22 and 0.21 and 0.23	decreased above an optimal ganglioside content	
GM1	-0.3 and -0.31 (2×) and -0.32	-0.32 and -0.33 and -0.29 and -0.28	-0.08 and -0.05 and -0.01	-0.1 and -0.11 and -0.08	0.3 and 0.31 (2×)		
GM2	0 and -0.04 and -0.02 and -0.03	-0.1 and -0.09 (2×) and -0.11	-0.25 and -0.22 and -0.35	-0.02 and 0 (2×)	0.28 and 0.29 and 0.26		novel interactions were observed
GM3	-0.24 and -0.19 (2×) and -0.2	-0.22 (2×) and -0.21 and -0.24	-0.45 and -0.31 and -0.25	-0.16 and -0.14 and -0.13	-0.03 and -0.01 (2×)		
GM4	-0.12 (2×) and -0.1 and -0.07	-0.2 (3×) and -0.21	-0.35 and -0.25 and -0.4	-0.07 and -0.06 and -0.04	0.19 (2×) and 0.21		
GQ1b	-0.12 and -0.13 (2×) and -0.1	-0.2 and -0.19 and -0.12 and -0.08	0.01 and -0.05 and -0.03	1.41 and 1.39 and 1.38	0.2 and 0.23 and 0.25		
GT1b	0.12 and 0.1 and 0.13 and 0.14	-0.05 and -0.03 and 0.02 and 0.1	-0.17 and -0.19 and -0.09	0.54 and 0.42 and 0.56	0.55 and 0.46 and 0.54		
